In paper PMC9024338, “Bruceine H Mediates EGFR-TKI Drug Persistence in NSCLC by Notch3-Dependent β-Catenin Activating FOXO3a Signaling” (Frontiers in Oncology, 2022):

Key:
A549 cells [1] = experiment: cells; assay type: cell-based, human; settings: A549, 48 h; read-out: IC50 (48 h)
Description: (§1) The human NSCLC cell lines (A549, PC-9, and PC-9/GR) and other cell lines (16HBE and LO2) were purchased from the American Type Culture Collection (ATCC, Manassas, VA, USA). […] All cell lines were cultivated at 37°C under 5% CO2.
(§2) The Cell Counting Kit-8 assays (Beyotime, Shanghai, China) were performed to assess cell viability. […] Microplate readers (Infinite F500, Tecan, Mannedorf, Switzerland) were used to measure the absorbance (A) at 450 nm. All samples were assessed in triplicate.

PC-9 cells = experiment: cells; assay type: cell-based, human; settings: PC-9, 48 h; read-out: IC50
Description: as §1, §2

16HBE cells = experiment: Toxicity to normal human cell line 16HBE (Figure S1); assay type: cell-based
Description: (§3) Figure S1. The toxicity of Bruceine H (BH) and Bruceine D (BD) to 16HBE (A) and LO2 (B) cells was evaluated.

LO2 cells = experiment: Toxicity to normal human cell line LO2 (Figure S1); assay type: cell-based
Description: as §3

A549 cells [2] = experiment: Transwell migration and Matrigel invasion assays; assay type: cell-based, human; settings: dose-dependent, 12 h treatment
Description: The Transwell insert in a 24-well plate (8 μm, Corning, NY, USA) was taken out, and a 600-μl medium containing 10% FBS was added to the bottom chamber. The A549 cells were resuspended with 10% FBS culture medium, and the diluted cell suspension (3 × 10^5/300 μl) was cultured in the top chamber and then incubated with or without Matrigel (BD BioCoat). After 12 h, the medium in the top chamber was changed to RPMI-1640 without FBS, and BD or BH with different concentrations was added ([31]). After an additional 12 h, the cells that migrated or invaded the bottom side of the polycarbonate film were fixed with methanol for 30 min and then stained for 15 min with 0.1% crystal violet (Solarbio), after which their number was assessed under a microscope (×4, Nikon).

PC-9/GR xenografts = PC-9/GR xenografts in BALB/c nude mice; assay type: in vivo; settings: BH 2.5 mg/kg, gefitinib 25 mg/kg, alone or co-administered, intragastric
[3] = Toxicity study in nude mice: organ index, blood routine, serum biochemistry; assay type: in vivo
Description: At the end of the experiment, blood samples were taken and analyzed by blood routine. […] The lungs and spleen were weighed and recorded. H&E staining of the heart, liver, spleen, lungs, and kidneys was performed to evaluate the cytotoxic effects of BH.

PC-9/GR cells = experiment: Apoptosis by flow cytometry (Annexin V-FITC/PI), PC-9/GR; assay type: cell-based, human; settings: low-dose BH (4, 8 μM), gefitinib 25 μM, alone or combined
Description: After being digested with trypsin without EDTA, the cells were washed gently with culture medium and twice with cold PBS. The pellet was resuspended in 400 μl of 1× binding buffer, the resuspended cells were transferred to flow tubes, then Annexin V-FITC (5 μl) and propidium iodide (10 μl) were added, and the mixture was incubated for 15 min at room temperature in the dark. The percentage of apoptotic cells was determined by flow cytometry (Backman, CA, USA) and FlowJo V10 software.

[4] = nude mice serum, mean ± SD (Table S4)
[5] = nude mice, routine blood (Table S3)

## CC1=CC(=O)[C@@H](O)[C@]2(C)[C@H]3[C@@H](O)[C@H](O)[C@@]4(C)OC[C@@]35[C@@H](C[C@@H]12)OC(=O)[C@H](O)[C@]54O [BD, bruceine D, reference compound]
A549 cells [1]
  IC50: 26.8 µM
PC-9 cells
  IC50: 21.8 µM
16HBE cells
  toxicity to 16HBE cells: higher sensitivity
LO2 cells
  toxicity to LO2 cells: higher sensitivity
A549 cells [2]
  Transwell migration and invasion of A549: significant anti-invasive and antimigratory actions

## COc1cc2ncnc(Nc3ccc(F)c(Cl)c3)c2cc1OCCCN1CCOCC1 [Gef, Gefitinib, reference compound]
PC-9/GR xenografts
  tumor growth of PC-9/GR xenografts: slight inhibitory effect
[3]; [4]
  HDL-C: 0.74 ± 0.28 mmol/L
  LDL-C: 0.89 ± 0.45 mmol/L
  TC: 3.49 ± 0.56 mmol/L
  TG: 0.74 ± 0.16 mmol/L
[3]; [5]
  GR: 4.593±2.519 ×10^9/L
  GR (%): 83.467±4.674%
  HCT: 50.933±6.123%
  HGB: 148.667 ± 17.616 g/L
  LY: 1.017±0.533 ×10^9/L
  LY (%): 14.2±2.685%
  MCH: 15.367 ± 0.306 pg
  MCHC: 292 ± 2.646 g/L
  MO: 0.213±0.274 ×10^9/L
  MO (%): 5.067±1.582%
  MPV: 6.933 ± 0.351 fL
  PCT: 0.653±0.110 mL/L
  PLT: 934.333±117.1 ×10^9/L
  RBC: 9.687±1.162 ×10^12/L
  WBC: 6.483±1.439 ×10^8/L
PC-9/GR cells
  apoptosis of PC-9/GR cells: little effects
